Test results taken from ChEMBL document CHEMBL1144513, “Synthesis and SAR study of novel 7-(pyridinium-3-yl)-carbonyl imidazo[5,1-b]thiazol-2-yl carbapenems” (2007).
In brackets after ≈: the same amount, converted by molar mass.

How the values were obtained:
Type in all cases: functional
Staphylococcus aureus [1] = assay: Antibacterial activity against methicillin-resistant Staphylococcus aureus M126 by agar dilution method
Klebsiella pneumoniae = assay: Antibacterial activity against Klebsiella pneumoniae GN69 by agar dilution method
Staphylococcus aureus [2] = assay: Antibacterial activity against Staphylococcus aureus 209P JC1 by agar dilution method
Escherichia coli = assay: Antibacterial activity against Escherichia coli NIHJ JC2 by agar dilution method
Moraxella catarrhalis = assay: Antibacterial activity against Moraxella catarrhalis W-0500 by agar dilution method
Staphylococcus aureus [3] = assay: Antibacterial activity against carbapenem and methicillin-resistant Staphylococcus aureus M126HR by agar dilution method
Haemophilus influenzae = assay: Antibacterial activity against beta-lactamase-negative ampicillin-resistant Haemophilus influenzae 870 by agar dilution method
Streptococcus pneumoniae = assay: Antibacterial activity against penicillin-resistant Streptococcus pneumoniae KK133 by agar dilution method

C[C@@H](O)[C@H]1C(=O)N2C(C(=O)O)=C(c3cn4cnc(C(=O)c5cn(C)c6ccccc56)c4s3)[C@H](C)[C@H]12
MIC (Staphylococcus aureus [1]): 0.031 µg/mL (≈ 0.0632 µM)
MIC (Klebsiella pneumoniae): 8 µg/mL (≈ 16.3 µM)
MIC (Staphylococcus aureus [2]): 0.008 µg/mL (≈ 0.0163 µM)
MIC (Escherichia coli): 4 µg/mL (≈ 8.15 µM)
MIC (Moraxella catarrhalis): 0.016 µg/mL (≈ 0.0326 µM)
MIC (Staphylococcus aureus [3]): 8 µg/mL (≈ 16.3 µM)
MIC (Haemophilus influenzae): 0.125 µg/mL (≈ 0.255 µM)
MIC (Streptococcus pneumoniae): 0.125 µg/mL (≈ 0.255 µM)
